Assay [1] relates to PD-L1 (CD274) in EBC-1 cells. Briefly: PD-L1 surface expression by flow cytometry in EBC-1 cells in vitro. In kind it is cell-based, human. The following applies: EBC-1 cells (NSCLC with cMET amplification) in vitro; 10 nM, 100 nM, 1000 nM; 24, 48 and 72 hours; vs DMSO. The protocol:
EBC-1 cells are non-small cell lung cancer cells with a cMET amplification.
PD-L1 (CD274) expression was analyzed in cancer cell lines treated with Compound A17. Cells were obtained from ATCC and cultured in vitro following ATCC directions. The cell lines used were previously characterized by the Cancer Cell Line Encyclopedia Project (http://www.broadinstitute.org/ccle/home).
Cells plated in six-well culture plates were treated with the Compound A17 at different concentrations (10 nM, 100 nM, and 1000 nM) for 24, 48 and 72 hours. Equal amount of vehicle (DMSO) was used as a control. Cells were washed with PBS and then harvested using a cell scraper.
For each reaction, 0.5-1×10^6 cells were stained with 20 μL of anti-human monoclonal PD-L1-PE antibody, clone M1H1 (BD) for 30-60 minutes at 4° C. Cells were washed twice and data was acquired using a Canto II with FACSDiva software (BD Bioscience). Data analysis was performed using FlowJo software (Tree Star). Mean fluorescence intensity (MFI) was determined by gating on single cells. Unstained cells were used as a gating control.

Assay [2] deals with PD-L1 (CD274) mRNA in Hs.746.T tumor. Briefly: PD-L1 mRNA by TaqMan RT PCR in Hs.746.T tumor xenograft. In kind it is in vivo, human. The following applies: Hs.746.T tumor (gastric cancer cell with cMET amplification & mutation) xenograft. The procedure: Hs.746.T cells are gastric cancer cells with a c-MET amplification and a c-MET mutation.
(§1) Isolated RNA was frozen at −80° C.
(§2) Each sample was run in triplicate.

Assay [3] concerns PD-L1 (CD274) mRNA in UKE-1 tumors. Description: PD-L1 mRNA by TaqMan RT PCR in UKE-1 tumor xenograft model. The following applies: tumor xenograft model bearing UKE-1 (MPN line with JAK2V617F mutation).
In assay [4] the test system is PD-L1 (CD274) mRNA in H3122 cells. Briefly: PD-L1 mRNA by TaqMan RT PCR in H3122 cells in vitro. In kind it is cell-based, human. Conditions: H3122 (NSCLC with ALK translocation) in vitro. The protocol:
H3122 cells are non-small cell lung cancer (NSCLC) cells with an ALK translocation.
as §1, §2

In assay [5] the test system is PD-L1 (CD274) mRNA in LOXIMV1 tumors. Briefly: PD-L1 mRNA by TaqMan RT PCR in LOXIMV1 tumor xenograft model. The class given is in vivo, human. Conditions: tumor xenograft model bearing LOXIMV1 (BRAF mutant melanoma). The procedure:
as §1, §2

The test system of assay [6] is PD-L1 (CD274) mRNA in HEYA8 tumors. Description: PD-L1 mRNA by TaqMan RT PCR in HEYA8 tumor xenograft model. The following applies: tumor xenograft model bearing HEYA8 (KRAF mutant ovarian cancer). The class given is in vivo, human. The procedure:
as §1, §2

The target in the next assay is T1, huPD-L1 (Homo sapiens, UniProt Q9NZQ7).
T1 construct: expressed in transfected cells; host or cells: 300.19 cells
T1 sequence (Q9NZQ7 19-290): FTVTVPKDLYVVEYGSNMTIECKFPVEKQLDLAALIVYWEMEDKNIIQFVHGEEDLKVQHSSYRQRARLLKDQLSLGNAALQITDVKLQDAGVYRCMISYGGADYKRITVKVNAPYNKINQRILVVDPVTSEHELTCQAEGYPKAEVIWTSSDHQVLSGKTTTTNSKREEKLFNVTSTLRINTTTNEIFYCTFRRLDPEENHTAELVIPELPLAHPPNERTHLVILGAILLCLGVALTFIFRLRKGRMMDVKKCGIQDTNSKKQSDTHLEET
Briefly: FACS binding of chimeric and humanized BAP058 mAbs to 300.19 cells expressing huPD-L1. Conditions: 300.19 cell line expressing huPD-L1 on the cell surface. The protocol: FIG. 3 is a bar graph showing the results of FACS binding analysis for the seventeen humanized BAP058 clones (BAP058-hum01 to BAP058-hum17). The antibody concentrations are 200, 100, 50, 25 and 12.5 ng/ml from the leftmost bar to the rightmost bar for each tested mAb.
Humanization of BAP058 was performed using a combinatorial library of human germline variable region frameworks (FWs). The technology entails transferring the murine CDRs in frame to a library of human variable regions (VRs) that had been constructed by randomly combining human germ line FW1, FW2 and FW3 sequences. Only one FW4 sequence was used, which is […] (SEQ ID NO: 154) for the heavy chain (HC) (Kabat human HC subgroup I, No. 21) and […] (SEQ ID NO: 186) for the light chain (LC) (Kabat human κ subgroup I, No. 5). The library of VR sequences was fused to human constant region (CR) sequences, human IgG4 (S228P) of HC and human κ CR of LC, and the resulting library of whole IgG mAbs was expressed in CHO cells for screening. Screening was performed with tissue culture supernatants measuring binding avidity on antigen-expressing cells in a whole cell ELISA format or on FACS.
Binding of the recombinant clone to human PD-L1 was tested using the 300.19 cell line expressing huPD-L1 on the cell surface and FACS analysis.

Take `CNC(=O)c1ccc(-c2cnc3ncc(Cc4ccc5ncccc5c4)n3n2)cc1F` [Compound A17, 2-fluoro-N-methyl-4-(7-(quinolin-6-ylmethyl)imidazo[1,2-b][1,2,4]triazin-2-yl)benzamide]: the “surface expression of PD-L1 (flow cytometry)” value in assay [1] is “significant downregulation of surface expression of PD-L1”. The “PD-L1 expression (mRNA)” value in assay [2] is “Inhibition of PD-L1 expression (mRNA)”. Turning to `N#CC[C@H](C1CCCC1)n1cc(-c2ncnc3[nH]ccc23)cn1` [Compound A18, Ruxolitinib Phosphate], in assay [3], the “PD-L1 mRNA” value is given as “Downregulation of PD-L1 mRNA”. Consider `Cc1cc(Nc2ncc(Cl)c(Nc3ccccc3S(=O)(=O)C(C)C)n2)c(OC(C)C)cc1C1CCNCC1` [Compound A23, ceritinib], for which, in assay [4], the “PD-L1 mRNA” value is “Inhibition of PD-L1 mRNA”.

On to `COC(=O)N[C@@H](C)CNc1nccc(-c2cn(C(C)C)nc2-c2cc(Cl)cc(NS(C)(=O)=O)c2F)n1` [Compound A29, Encorafenib], for which the “PD-L1 mRNA” value in assay [5] is recorded as “Downregulation of PD-L1 mRNA”. As for `Cn1cnc2c(F)c(Nc3ccc(Br)cc3F)c(C(=O)NOCCO)cc21` [Compound A34, Binimetinib], in assay [6], the “PD-L1 mRNA” value is given as “Downregulation of PD-L1 mRNA”.

B1: BAP058-chi: chimeric mAb: murine VR, human IgG4 (S228P), human κ (antibody, V domains shown)
VH: EVQLQQSGAELVKPGASVKLSCKASGYTFTSYWMYWVKQGPGRGLEWIGRIDPNSGSTKYNEKFKNKATLTVDKSSSTAYMQLSSLTSEDSAVYYCARDYRKGLYAMDYWGQGTTVTVSS
VL: DIMMTQSHKFMSTSVGDRVSITCKASQDVGTAVAWYQQKPGQSPKLLIYWASTRHTGVPDRFTGSGSGTDFTLTISNVQSEDLADYFCQQYNSYPLTFGQGTKVEIK
For the molecule B1, the “Binding to human PD-L1 (FACS analysis)” value with huPD-L1 was “bound well to the antigen”.

Source of the values: US10851165B2, “Antibody molecules to PD-L1 and methods of treating cancer” (Novartis AG, priority 2014, dated 2020).
